According to PMC8910920 (International Journal of Molecular Sciences, 2022):
Values joined by “and” are separate entries in the source; they are usually repeats but may differ in a detail not shown here. Equal values may be shown once.

Tests used:
[1] = molecular target: T1, native TRPM8 channels from rat DRG neurons (Rattus norvegicus, UniProt Q8R455); experiment: Whole-cell voltage-clamp, menthol-activated currents in rat DRG neurons; type: cell-based
T1 construct: native TRPM8 channels from rat DRG neurons; endogenous in cells; host or cells: primary DRG neurons (L4-L6) from 6-8 weeks old Sprague-Dawley rats
T1 sequence (Q8R455 whole entry): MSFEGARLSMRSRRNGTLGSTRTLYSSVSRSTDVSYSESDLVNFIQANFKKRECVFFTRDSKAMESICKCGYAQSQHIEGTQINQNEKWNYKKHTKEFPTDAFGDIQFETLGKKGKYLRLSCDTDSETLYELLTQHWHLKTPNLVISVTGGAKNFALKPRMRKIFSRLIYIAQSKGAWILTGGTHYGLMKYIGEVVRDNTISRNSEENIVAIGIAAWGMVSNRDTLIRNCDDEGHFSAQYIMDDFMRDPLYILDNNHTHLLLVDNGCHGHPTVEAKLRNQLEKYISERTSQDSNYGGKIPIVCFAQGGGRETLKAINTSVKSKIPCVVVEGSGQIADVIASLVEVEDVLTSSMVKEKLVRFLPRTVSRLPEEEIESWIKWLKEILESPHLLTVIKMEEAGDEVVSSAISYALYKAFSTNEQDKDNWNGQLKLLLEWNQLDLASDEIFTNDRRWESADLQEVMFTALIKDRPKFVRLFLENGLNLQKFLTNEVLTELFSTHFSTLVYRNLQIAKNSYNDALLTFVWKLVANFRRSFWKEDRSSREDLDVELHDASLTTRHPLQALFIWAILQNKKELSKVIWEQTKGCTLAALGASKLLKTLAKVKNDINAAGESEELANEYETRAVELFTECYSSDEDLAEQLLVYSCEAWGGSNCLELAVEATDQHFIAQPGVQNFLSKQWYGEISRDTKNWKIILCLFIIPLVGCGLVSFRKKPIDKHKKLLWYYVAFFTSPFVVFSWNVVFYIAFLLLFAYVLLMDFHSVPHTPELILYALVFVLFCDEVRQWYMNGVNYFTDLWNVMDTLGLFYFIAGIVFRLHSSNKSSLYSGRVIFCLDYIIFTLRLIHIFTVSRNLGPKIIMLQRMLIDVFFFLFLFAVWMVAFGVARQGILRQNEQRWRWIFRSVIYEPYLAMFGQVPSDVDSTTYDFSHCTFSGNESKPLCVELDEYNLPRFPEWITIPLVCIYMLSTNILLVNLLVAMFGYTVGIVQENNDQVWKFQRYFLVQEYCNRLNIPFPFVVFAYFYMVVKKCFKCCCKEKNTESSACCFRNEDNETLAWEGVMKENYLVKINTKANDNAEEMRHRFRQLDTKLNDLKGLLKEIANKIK
Protocol: We also investigated the effect of RGM8-51 on native TRPM8 channels from rat DRG neurons. Whole-cell patch-clamp recordings from small size DRG neurons evidenced menthol (100 µM)-activated inward currents at a holding voltage of −80 mV (Figure 3A). As expected from results obtained in rTRPM8-expressing HEK293 cells, RGM8-51 (1 µM) inhibited menthol-activated currents.
Voltage-activated Na^+ and K^+ currents and TRPM8-mediated currents were recorded in DRG neurons isolated from 6-8 weeks old Sprague-Dawley rats, as previously described. Rats were sacrificed by cervical dislocation followed by decapitation and lumbar segments of the spinal column were removed and placed in a cold Ca^2+, Mg^2+-free Hank’s solution (Sigma-Aldrich, Madrid, Spain). The bone surrounding the spinal cord was removed and the right L4, L5 and L6 DRG were exposed and pulled out. After removing the roots, DRG were chopped in half and incubated for 30 min at 37°C in Dulbecco’s modified Eagle’s Medium-low glucose (DMEM; Sigma-Aldrich) containing 5 mg/mL collagenase XI (Sigma-Aldrich, Madrid, Spain), 100 U/mL penicillin (Sigma-Aldrich), and 0.1 mg/mL streptomycin (Sigma-Aldrich). Then, the cell suspension was washed with DMEM by centrifugation (300 G, 5 min at 4 °C), filtered through a 100 µm mesh to eliminate cell clumps and washed again by centrifugation. […]
Data were sampled at 10 kHz (EPC10 amplifier with PatchMaster 2.53 software, HEKA Electronics, Lambrecht, Germany) and low-pass filtered at 3 kHz for analysis (PatchMaster 2.53 and GraphPad Prism 6.0, Graphpad Software, San Diego, CA, USA). […] Cell capacitance was measured and used to estimate the current density (J, pA/pF).
Data analysis: For the whole-cell patch-clamp experiments, results are expressed as the percentage of remaining activation of the TRPM8 channel. This is calculated by normalizing the ratio (p2/p1) of testing conditions to the ratio (p2/p1) of the control condition. […]

serum proteins = experiment: Protein binding; type: in vitro ADME, human

In the case of `C[C@@H]1C(=O)N(C[C@H](Cc2ccccc2)N(Cc2ccccc2)Cc2ccccc2)[C@]1(Cc1ccccc1)C(=O)OC(C)(C)C` [RGM8-51, 4(S)-Benzyl-3S-methyl-4-(tert-butoxy)carbonyl-1-[(2′S-dibenzylamino-3′-phenyl)prop-1′-yl]-2-oxoazetidine], the “peak current density of menthol-activated current after compound” value ([1]; 1 µM, menthol 100 µM, holding −80 mV) is reported as 0.51 ± 0.09 pA/pF, the inhibition at 1 µM ([1]; DRG neuron, 1 µM, menthol 100 µM, holding −80 mV, n = 8 cells, read-out: Mean peak current inhibition of menthol-activated currents) is reported as 65 ± 4.67% and the “effect on baseline current at -80 mV” value ([1]; compound on its own) is reported as “did not modify on its own the baseline current”. The “Binding to proteins (%)” value (serum proteins) was 100% and 99–100%.
